Tested on: Rattus norvegicus
Conditions: oral
[1] = short-term, duration: 28 days, gavage, M, Sprague-Dawley, Clinical Observation: Diarrhea + Body Weight Changes: decrease + Food Consumption: decrease + Urinalysis: Color, Brown + Hematology: RET …
[2] = short-term, duration: 28 days, gavage, F, Sprague-Dawley, Food Consumption: decrease + Hematology: RBC decrease, Hct decrease1000 Hgb decrease1000 Plt increase, PT increase, APTT increase, Ret …
[3] = short-term, duration: 28 days, gavage, M, Sprague-Dawley, Food Consumption: decrease + Hematology: RBC decrease, Hct decrease1000 Hgb decrease1000 Plt increase, PT increase, APTT increase, Ret …
[4] = subchronic, gavage, M, Sprague-Dawley, Clinical Observation: Salivation + Urinalysis: Tubular epithelial cell in sediment + Hematology: PT increase, APTT increase + Blood …
[5] = subchronic, gavage, M, Sprague-Dawley, Deaths + Clinical Observation: Salivation + Body Weight Changes: Body weight gain decrease + Food Consumption: decrease + Urinalysis: Brown …
[6] = short-term, duration: 28 days, gavage, M, Sprague-Dawley, Clinical Observation: Locomotor activity decrease, Respiratory rate decrease, Incomplete eyelid opening + Blood Chemistry: TG decrease + …

SMILES: O=C1c2ccccc2C(=O)c2ccccc21 [Anthraquinone]
- NOAEL [1]: < 200 mg/kg-day
- NOEL [1]: < 200 mg/kg-day

SMILES: COC(=O)C1=C(C)NC(C)=C(C(=O)OCC(C)=O)C1c1ccccc1[N+](=O)[O-] (configuration not stated) [Aranidipine]
- NOEL (chronic, duration: 91 days, gavage, M/F, Wistar, Deaths + Clinical Observation: Prone position.0 (Dead animal) Hypothermia.0 (Dead animal) Rough respiration Locomotor activity decrease …): 3 mg/kg-day

SMILES: O=C1c2ccccc2-c2cccc3cccc1c23 [Benz[de]anthracen-7-one]
- LOAEL [2]: 60 mg/kg-day
- LOEL [2]: 60 mg/kg-day
- NOAEL [2]: 15 mg/kg-day
- NOEL [2]: 15 mg/kg-day
- LOAEL [3]: 60 mg/kg-day
- LOEL [3]: 60 mg/kg-day
- NOAEL [3]: 15 mg/kg-day
- NOEL [3]: 15 mg/kg-day

SMILES: Nc1ccc(Cc2ccc(N)c(Cl)c2Cl)c(Cl)c1Cl [Benzenamine, 4,4'-methylenebis(2,3-dichloro-]
- NOEL (short-term, duration: 28 days, gavage, M/F, Sprague-Dawley, Deaths + Hematology: WBC increase + Blood Chemistry: Alpha 1-globirin, level decrease, K increasemg/kg/ , TG increase/ + Relative Organ …): 100 mg/kg-day

SMILES: ClCc1ccc(Cl)c(Cl)c1 [Benzene, 1,2-dichloro-4-(chloromethyl)-]
- NOEL (short-term, duration: 28 days, gavage, M/F, CD(SD), Deaths + Urinalysis: Volume, urinary cast increase, Epithelial cell increase + Absolute Organ Weight: Kidney increase, Liver increase + …): < 10 mg/kg-day

SMILES: FC(F)(F)c1cccc(C(F)(F)F)c1 [Benzene, 1,3-bis(trifluoromethyl)-]
- NOAEL [4]: 150 mg/kg-day
- NOEL [4]: < 40 mg/kg-day

SMILES: Cc1cc(Cl)ccc1Cl [Benzene, 1,4-dichloro-2-methyl-]
- NOEL (subchronic, gavage, M, Sprague-Dawley, Clinical Observation: White turbid urine Salivation + Absolute Organ Weight: Kidney increase + Relative Organ Weight: Kidney increase, R): 30 mg/kg-day

SMILES: O=C(OOC(=O)c1ccccc1)c1ccccc1 [Benzoyl peroxide]
- NOAEL (short-term, duration: 28 days, gavage, M, Sprague-Dawley, Absolute Organ Weight: Testes decrease + Relative Organ Weight: Testes decrease, Epididymis decrease + Histopathology: Testes: Degeneration): 500 mg/kg-day

SMILES: CCCCCCCC[N+](C)(C)Cc1ccccc1.[Cl-] [Benzyldimethyloctylammonium chloride]
- NOAEL [5]: 15 mg/kg-day
- NOEL [5]: 15 mg/kg-day

SMILES: C[N+](C)(C)CC(=O)[O-] [Betaine]
- NOEL (subchronic, diet, M/F, Sprague-Dawley, Food Consumption: decrease + Urinalysis: Urine volume increase,pH decrease + Hematology: Plt increase, Fib increase + Blood Chemistry: Alp …): < 1%

SMILES: COc1ccc(CCNCC(O)COc2cccc(C)c2)cc1OC.Cl (configuration not stated) [Bevantolol hydrochloride]
- NOEL (chronic, duration: 91 days, gavage, M/F, CD, Deaths + Clinical Observation: Salivation Sedation Ptosis Prone position Lateral position Crouching position Convulsion Incontinence of …): 60 mg/kg-day

SMILES: ClC(COCC(Cl)C(Cl)(Cl)Cl)C(Cl)(Cl)Cl (configuration not stated) [Bis(2,3,3,3-tetrachloropropyl) ether]
- NOEL (subchronic, gavage, M/F, Wistar, Clinical Observation: Lethargy + Body Weight Changes: decrease + Urinalysis: Ketone body increase, TP increase + Hematology: Hgb decrease, …): 40 mg/kg-day

SMILES: CCC[CH2][Sn]([Cl])([Cl])[Cl] [Butyltin trichloride]
- NOAEL (subchronic, duration: 13 weeks, diet, M/F, Wistar, Urinalysis: pH increase + Hematology: WBC increase, Lymph increase + Blood Chemistry: ALP increase, ASAT increase, GGT increase, A/G …): 144 mg/kg-day

SMILES: COc1cc(-c2ccc(N=Nc3c(S(=O)(=O)[O-])cc4cc(S(=O)(=O)[O-])cc(N)c4c3O)c(OC)c2)ccc1N=Nc1c(S(=O)(=O)[O-])cc2cc(S(=O)(=O)[O-])cc(N)c2c1O.[Na+].[Na+].[Na+].[Na+] [C.I. Direct Blue 15]
- NOEL (subchronic, duration: 13 weeks, drinking water, F, Fischer 344, Deaths + Body Weight Changes: decrease + Water Consumption: decrease + Absolute Organ Weight: Kidney increase + Relative Organ Weight: …): 380 mg/kg-day
- NOEL (subchronic, duration: 13 weeks, drinking water, M, Fischer 344, Deaths + Body Weight Changes: decrease + Water Consumption: decrease + Absolute Organ Weight: Kidney increase + Relative Organ Weight: …): < 190 mg/kg-day

SMILES: Nc1cc(S(=O)(=O)[O-])cc2cc(S(=O)(=O)[O-])c(N=Nc3ccc(-c4ccc(N=Nc5c(S(=O)(=O)[O-])cc6cc(S(=O)(=O)[O-])cc(N)c6c5[O-])c([O-])c4)cc3[O-])c([O-])c12.[Cu+2].[Cu+2].[Na+].[Na+].[Na+].[Na+] [C.I. Direct Blue 218]
- NOEL (subchronic, duration: 13 weeks, diet, F, Fischer 344, Body Weight Changes: decrease + Food Consumption: decrease + Hematology: Hct decrease, Hgb decrease + Blood Chemistry: ALT increase, , SDH …): 200 mg/kg-day
- NOEL (subchronic, duration: 13 weeks, diet, M/F, Fischer 344, Body Weight Changes: decrease + Food Consumption: decrease + Hematology: Hct decrease, Hgb decrease + Blood Chemistry: ALT increase, , SDH …): < 288 mg/kg-day

SMILES: O=C(O)C1C(C(=O)O)C2(Cl)C(Cl)=C(Cl)C1(Cl)C2(Cl)Cl (configuration not stated) [Chlorendic acid]
- NOEL (subchronic, duration: 13 weeks, diet, M/F, Fischer 344, Body Weight Changes: decrease + Histopathology: Liver-Cytomegaly Liver/bile duct -Hyperplasia Liver-Mitotic alteration): < 59.5 mg/kg-day

SMILES: [Cu+2].[O-]n1ccccc1=S.[O-]n1ccccc1=S [Copper Omadine]
- NOEL (short-term, duration: 28 days, gavage, M/F, Deaths + Clinical Observation: Ataxic gait Dragging of hindlimbs Emaciation + Body Weight Changes: decrease + Food Consumption: decrease + …): 2.5 mg/kg-day

SMILES: CC=CC(=O)N(CC)c1ccccc1C [Crotamiton]
- NOEL (short-term, duration: 28 days, gavage, F, Sprague-Dawley, Clinical Observation: Salivation + Body Weight Changes: Weight gain decrease, increase + Food Consumption: increase + Urinalysis: Occult …): 60 mg/kg-day
- NOEL (short-term, duration: 28 days, gavage, M, Sprague-Dawley, Clinical Observation: Salivation + Body Weight Changes: Weight gain decrease, increase + Food Consumption: increase + Urinalysis: Occult …): 12 mg/kg-day

SMILES: CC(C)c1ccc(N)cc1 [Cumidine]
- NOEL (subchronic, gavage, M, Sprague-Dawley, Clinical Observation: Anemia in eyes + Hematology: Met-Hgb increase, Hct decrease, Hgb decrease, RBC decrease, MCV increase, MCH increase, …): 6 mg/kg-day

SMILES: O=C1CCCCC1C1=CCCCC1 (configuration not stated) [Cyclohexanone, 2-(1-cyclohexen-1-yl)-]
- NOEL (subchronic, gavage, M, Sprague-Dawley, Clinical Observation: Salivation + Body Weight Changes: decrease + Blood Chemistry: gamma-GTP increase, TP increase, Alb increase, T-Cho …): 40 mg/kg-day

SMILES: COC(=O)CC(=O)OC [Dimethyl malonate]
- NOAEL (subchronic, gavage, M, Wistar, Histopathology: Liver: Hypertrophy, hepatocyte): 300 mg/kg-day

SMILES: CN(C)CCCCl.Cl [Dimethylaminopropyl chloride hydrochloride]
- NOEL (subchronic, drinking water, M/F, Fischer 344, Deaths + Body Weight Changes: decrease + Blood Chemistry: TP decrease Alb decrease Bile acid increase + Histopathology: Nose-Goblet cell, …): < 6.25 mg/kg-day

SMILES: CC(CO)OC(C)CO.CC(O)COCC(C)O (configuration not stated) [Dipropylene glycol]
- NOAEL [6]: 1000 mg/kg-day
- NOEL [6]: 200 mg/kg-day

SMILES: CC(C)C[C@H]1C(=O)N2CCC[C@H]2[C@]2(O)O[C@](NC(=O)[C@@H]3C=C4c5cccc6[nH]cc(c56)C[C@H]4N(C)C3)(C(C)C)C(=O)N12 [Ergocryptine]
- NOEL (subchronic, diet, F, Hsd/Ola/SD, Clinical Observation: Hyperkinesia, dirty hair Hunchback position Aggression + Body Weight Changes: decrease + Food Consumption: decrease + …): 0.36 mg/kg-day
- NOEL (subchronic, diet, M/F, Hsd/Ola/SD, Clinical Observation: Hyperkinesia, dirty hair Hunchback position Aggression + Body Weight Changes: decrease + Food Consumption: decrease + …): 4 mg/kg-day

SMILES: CCOCCOCCOC [Ethane, 1-ethoxy-2-(2-methoxyethoxy)-]
- NOAEL (subchronic, duration: 42 days, gavage, M, CD(SD), Clinical Observation: Decrease in locomotor activity Salivation (transient) + Food Consumption: decrease + Urinalysis: K decrease, Cl …): 62.5 mg/kg-day

SMILES: Nc1ccc2cc(S(=O)(=O)CCO)ccc2c1 [Ethanol, 2-[(6-amino-2-naphthalenyl)sulfonyl]-]
- NOEL (short-term, duration: 28 days, gavage, M/F, Body Weight Changes: Weight gain decrease + Urinalysis: pH decrease(slight) + Hematology: RBC decrease, RET increase, PT increase + Absolute…): 15 mg/kg-day

SMILES: Nc1nc(N)nc(-c2cc(Cl)ccc2Cl)n1.O=C(O)/C=C\C(=O)O [Irsogladine maleate]
- NOEL (chronic, duration: 91 days, gavage, M/F, Sprague-Dawley, Deaths + Clinical Observation: Piloerection Salivation Locomotor activity decrease, Decrease in reactivity Soiled fur Brownish urine Soiled …): 3 mg/kg-day
